{
  "source": "patent US11530212B2",
  "about": "“Fluorescent probe compound for zinc ion, as well as preparation method and use thereof” (Wuyi University, priority 2019, dated 2022)",
  "key": {"[1]": {"test": "Competitive experiment: Zn^2+ detection in presence of other metal ions", "conditions": "Zn^2+ solution (10 NM) plus other metal ion of the same concentration; FIG. 3", "procedure": "In order to further verify the specificity of the zinc ion fluorescent probe compound to the zinc ion, a competitive experiment was conducted: adding the Zn^2+ solution (10 NM) into the probe solution formulated in step (1) together with a solution of any other one of the aforesaid metal ions of the same concentration; testing the effects of other competitive ions on the Zn^2+ selectivity of the zinc ion fluorescent probe compound respectively. The test results were shown in FIG. 3 (all test solution was uniformly labeled as “zinc ion fluorescent probe compound+M+Zn”)."}, "[2]": {"test": "Fluorescence property test of probe with other metal ion solutions", "conditions": "Mg^2+, Fe^2+, Cu^+, Cu^2+, Sn^4+, Co^2+, Mn^2+, K^+, Li^+, Ba^2+, Ca^2+, Cd^2+, Ni^2+, Fe^3+ or Al^3+; CH3OH-H2O (v:v=1:1); FIG. 3", "procedure": "(§1) The fluorescence property of the fluorescent probe compound according to the present disclosure was measured, including the following steps:\n(§2) (1) Formulating a Probe Solution:\n(§3) formulating a solution of 2-(7-(2,8-dimethyl quinoline-6-yl)-5,6,7,8-tetrahydro-1,8-naphthyridin-2-yl) phenol with a concentration of 100 μM in methanol, i.e. a probe solution, and stored at room temperature.\n(§4) (2) Formulating Metal Ion Solutions: […]\n(§5) the metal ions including: Mg^2+, Fe^2+, Cu^+, Cu^2+, Sn^4+, Co^2+, Mn^2+, K^+, Li^+, Ba^2+, Ca^2+, Cd^2+, Ni^2+, Fe^3+, Al^3+ and Zn^2+; and the respectively solutions of them were prepared from the corresponding hydrochloride salts thereof. Taking a certain amount of metal salts, dissolved in 10 mL of distilled water to formulate a 10-2 mol/L metal ion solution, and stored for later use.\n(§6) (3) Fluorescence Property Test:\n(§7) formulating solution to be tested: taking 0.5 mL of the formulated probe solution and 0.5 mL of the formulated metal ion solution, mixing with 4 mL solution of a CH3OH—H2O (v:v=1:1) to obtain a solution to be tested of the metal ion.\n(§8) formulating blank solution: taking 0.5 mL of the formulated probe solution, mixed with solution of 2.5 mL water and 2 mL methanol.\n(§9) analyzing the fluorescence intensity of solution to be tested by fluorescence spectrum, and the analysis result was shown in FIG. 3."}, "[3]": {"test": "Fluorescence titration with different concentrations of Zn^2+ (detection range and limit)", "conditions": "Zn^2+ concentration 4×10^-6 M; FIG. 4", "procedure": "Different concentrations of Zn^2+ were added into the probe solution formulated in step (1) to test the fluorescence property of the probe solution, so as to determine the detection range and detection limit for Zn^2+ of the fluorescent probe compound."}, "[4]": {"test": "Fluorescence property test of probe with metal ion solution", "conditions": "Zn^2+ solution; CH3OH-H2O (v:v=1:1); FIG. 3", "procedure": "as §1, §2, §3, §4, §5, §6, §7, §8, §9"}},
  "data": [
    {"smiles": "Cc1ccc2cc(C3CCc4ccc(-c5ccccc5O)nc4N3)cc(C)c2n1", "note": "(stereo not shown) [fluorescent probe compound, 2-(7-(2,8-dimethylquinoline-6-yl)-5,6,7,8-tetrahydro-1,8-naphthyridin-2-yl) phenol]", "values": [
      {"measurement": "change of Zn^2+ detection before and after addition of other competitive ions", "setting": "[1]", "value": "almost no change"},
      {"measurement": "fluorescence intensity change (F/F0) of the solution to be tested", "setting": "[2]", "value": "changed slightly"},
      {"measurement": "fluorescence intensity of the compound", "setting": "[3]", "value": "dramatic decay"},
      {"measurement": "fluorescence intensity change (F/F0) of the solution to be tested", "setting": "[4]", "value": "significant fluorescence decay"}
    ]}
  ]
}
